ChEMBL document CHEMBL4251556, “Selective kappa opioid antagonists for treatment of addiction, are we there yet?” (Eur J Med Chem, 2017)
Residues, ends and D or L forms follow the SMILES beside them.

Legend:
[1] = Selectivity ratio of Ki for mu-opioid receptor in rat brain membranes to Ki for kappa opioid receptor in guinea pig brain membranes; type: cell membranes
[2] = Selectivity ratio of Ki for delta-opioid receptor in rat brain membranes to Ki for kappa opioid receptor in guinea pig brain membranes; type: cell membranes
[3] = Selectivity ratio of Ki for rat mu-opioid receptor in expressed in rat C6 cell membranes to Ki for human kappa opioid receptor expressed in CHO cell membranes; type: cell-based
[4] = target: T1, Kappa-type opioid receptor (Homo sapiens, UniProt P41145); assay: Displacement of [3H]-diprenorphine from human kappa opioid receptor expressed in CHO cells after 1 hr; type: cell-based
[5] = target: T2, Mu-type opioid receptor (Rattus norvegicus, UniProt P33535); assay: Displacement of [3H]-diprenorphine from rat mu-opioid receptor in expressed in rat C6 cell membranes after 1 hr
[6] = target: Kappa-type opioid receptor (Cavia porcellus) (UniProt P41144); assay: Displacement of [3H]CI-977 from kappa opioid receptor in guinea pig brain membranes after 2 hrs by scintillation counting method; type: cell membranes; conditions: Membrane, concentration not given here
[7] = target: T1, Kappa-type opioid receptor; assay: Antagonist activity at kappa opioid receptor (unknown origin); type: functional
[8] = target: Kappa-type opioid receptor (Cavia porcellus, UniProt P41144); assay: Displacement of [3H]U69,593 from kappa opioid receptor in guinea pig brain membranes after 2 hrs; type: cell membranes, Membrane
[9] = target: G_PROTEIN_RECEP_F1_2 domain-containing protein (Cavia porcellus, UniProt A0A286XTF2); assay: Displacement of [3H]DPDPE from delta-opioid receptor in guinea pig brain membranes after 30 mins by scintillation counting method; type: cell membranes, Membrane
[10] = organism: Oryctolagus cuniculus; assay: Antagonist activity at KOR in Japanese white rabbit vas deferens assessed as inhibition of asimadoline-induced suppression of electric field stimulated twitch response after 30 mins
[11] = organism: Homo sapiens; assay: Selectivity ratio of Ki for Mu opioid receptor (unknown origin) to Ki for kappa opioid receptor (unknown origin)
[12] = organism: Homo sapiens; assay: Selectivity ratio of Ki for delta opioid receptor (unknown origin) to Ki for kappa opioid receptor (unknown origin)
[13] = target: Mu-type opioid receptor (Homo sapiens, UniProt P35372); assay: Antagonist activity at human mu opioid receptor expressed in CHO cells assessed as stimulation of [35S]GTPgammaS; type: functional, cell-based
[14] = target: T1, Kappa-type opioid receptor; assay: Antagonist activity at human kappa opioid receptor expressed in CHO cells assessed as stimulation of [35S]GTPgammaS; type: functional, cell-based
[15] = target: Delta-type opioid receptor (Homo sapiens, UniProt P41143); assay: Antagonist activity at human delta opioid receptor expressed in CHO cells assessed as stimulation of [35S]GTPgammaS; type: functional, cell-based
[16] = system: Rattus norvegicus; assay: […] activity in po dosed rat assessed as reversal of U-69593-induced pain response; type: functional
[17] = target: Delta-type opioid receptor (Rattus norvegicus, UniProt P33533); assay: Displacement of [3H]DADLE from delta-opioid receptor in rat brain membranes after 2 hrs; type: cell membranes, Membrane
[18] = target: T2, Mu-type opioid receptor; assay: Displacement of [3H]DAMGO from mu-opioid receptor in rat brain membranes after 2 hrs; type: cell membranes, Membrane

T1 sequence (P41145 whole entry): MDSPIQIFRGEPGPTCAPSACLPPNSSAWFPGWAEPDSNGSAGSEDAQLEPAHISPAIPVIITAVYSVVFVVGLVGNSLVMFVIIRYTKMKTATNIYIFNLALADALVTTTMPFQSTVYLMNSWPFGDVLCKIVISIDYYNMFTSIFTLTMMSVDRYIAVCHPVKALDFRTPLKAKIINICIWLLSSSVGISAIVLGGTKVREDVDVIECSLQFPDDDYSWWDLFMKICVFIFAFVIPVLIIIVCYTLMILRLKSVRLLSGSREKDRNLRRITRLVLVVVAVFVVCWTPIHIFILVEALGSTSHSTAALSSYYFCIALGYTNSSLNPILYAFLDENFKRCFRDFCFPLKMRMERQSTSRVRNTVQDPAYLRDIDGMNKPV
T2 sequence (P33535 whole entry): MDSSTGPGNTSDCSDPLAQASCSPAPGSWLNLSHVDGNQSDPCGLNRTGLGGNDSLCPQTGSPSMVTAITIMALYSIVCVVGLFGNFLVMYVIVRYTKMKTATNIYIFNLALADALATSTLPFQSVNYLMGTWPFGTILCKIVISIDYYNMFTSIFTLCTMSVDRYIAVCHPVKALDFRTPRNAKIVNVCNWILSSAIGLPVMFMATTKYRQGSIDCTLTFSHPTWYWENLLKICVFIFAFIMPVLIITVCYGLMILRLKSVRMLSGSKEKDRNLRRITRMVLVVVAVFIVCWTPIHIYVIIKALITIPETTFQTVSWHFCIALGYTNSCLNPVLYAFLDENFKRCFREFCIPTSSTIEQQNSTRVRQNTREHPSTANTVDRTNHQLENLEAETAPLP
Chain of Kappa-type opioid receptor (Cavia porcellus) (P41144 whole entry): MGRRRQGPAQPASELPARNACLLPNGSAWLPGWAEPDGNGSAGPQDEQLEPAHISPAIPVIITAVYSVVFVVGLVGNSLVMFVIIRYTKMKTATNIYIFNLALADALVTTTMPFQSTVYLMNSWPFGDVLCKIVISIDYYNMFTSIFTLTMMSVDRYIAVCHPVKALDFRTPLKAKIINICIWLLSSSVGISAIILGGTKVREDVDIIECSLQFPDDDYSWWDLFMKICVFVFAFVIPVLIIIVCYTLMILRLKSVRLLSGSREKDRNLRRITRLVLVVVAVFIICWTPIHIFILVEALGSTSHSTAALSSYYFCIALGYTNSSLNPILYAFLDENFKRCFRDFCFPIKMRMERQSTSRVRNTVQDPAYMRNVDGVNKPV
Chain of Kappa-type opioid receptor (Cavia porcellus, UniProt P41144) (P41144 whole entry): as above
Chain of Mu-type opioid receptor (Homo sapiens, UniProt P35372) (P35372 whole entry): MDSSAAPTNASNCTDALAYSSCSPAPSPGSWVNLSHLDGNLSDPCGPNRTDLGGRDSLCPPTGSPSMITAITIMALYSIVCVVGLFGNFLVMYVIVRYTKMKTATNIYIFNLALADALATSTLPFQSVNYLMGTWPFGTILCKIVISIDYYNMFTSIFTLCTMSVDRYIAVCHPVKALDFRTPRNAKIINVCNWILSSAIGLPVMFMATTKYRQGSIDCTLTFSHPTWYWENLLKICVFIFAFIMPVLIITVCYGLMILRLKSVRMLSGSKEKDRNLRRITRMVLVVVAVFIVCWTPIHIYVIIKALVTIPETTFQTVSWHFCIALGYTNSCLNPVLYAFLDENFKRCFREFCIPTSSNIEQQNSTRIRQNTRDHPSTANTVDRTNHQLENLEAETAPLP
Chain of G_PROTEIN_RECEP_F1_2 domain-containing protein (A0A286XTF2 whole entry): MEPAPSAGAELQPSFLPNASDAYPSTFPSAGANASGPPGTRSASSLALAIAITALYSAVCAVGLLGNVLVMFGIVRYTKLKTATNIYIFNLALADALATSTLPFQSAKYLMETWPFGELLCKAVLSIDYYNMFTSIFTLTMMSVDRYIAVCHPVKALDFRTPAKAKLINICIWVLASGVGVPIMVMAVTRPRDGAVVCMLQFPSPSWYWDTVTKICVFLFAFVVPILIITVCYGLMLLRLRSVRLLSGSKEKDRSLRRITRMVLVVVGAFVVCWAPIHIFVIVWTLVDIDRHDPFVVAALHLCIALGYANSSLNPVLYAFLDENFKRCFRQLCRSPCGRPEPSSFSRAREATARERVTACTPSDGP
Chain of Delta-type opioid receptor (Rattus norvegicus, UniProt P33533) (P33533 whole entry): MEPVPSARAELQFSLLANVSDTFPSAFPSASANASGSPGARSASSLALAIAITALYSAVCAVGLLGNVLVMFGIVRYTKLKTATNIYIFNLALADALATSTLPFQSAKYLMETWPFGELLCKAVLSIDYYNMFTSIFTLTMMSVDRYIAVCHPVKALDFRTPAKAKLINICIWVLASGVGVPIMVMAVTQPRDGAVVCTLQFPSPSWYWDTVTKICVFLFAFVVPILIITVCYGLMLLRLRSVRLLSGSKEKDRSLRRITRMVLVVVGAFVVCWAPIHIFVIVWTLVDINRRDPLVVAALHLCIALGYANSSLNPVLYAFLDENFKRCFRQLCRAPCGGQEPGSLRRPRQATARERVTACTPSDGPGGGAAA
Chain of Delta-type opioid receptor (Homo sapiens, UniProt P41143) (P41143 whole entry): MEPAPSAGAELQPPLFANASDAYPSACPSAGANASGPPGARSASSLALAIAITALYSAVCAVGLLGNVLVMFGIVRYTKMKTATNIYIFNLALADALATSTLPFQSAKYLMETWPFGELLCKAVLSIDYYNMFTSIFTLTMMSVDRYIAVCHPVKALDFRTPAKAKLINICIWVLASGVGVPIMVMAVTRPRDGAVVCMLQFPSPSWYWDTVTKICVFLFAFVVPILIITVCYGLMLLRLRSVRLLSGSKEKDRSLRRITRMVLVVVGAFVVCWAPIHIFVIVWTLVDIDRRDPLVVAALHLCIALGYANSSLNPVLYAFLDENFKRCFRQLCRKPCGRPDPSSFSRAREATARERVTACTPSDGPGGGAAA

CC(C)[C@@H](CN1CC[C@@](C)(c2cccc(O)c2)[C@@H](C)C1)NC(=O)[C@H]1Cc2ccc(O)cc2CN1C(=O)CN(C)C
Ratio Ki [1]: 11
Ratio Ki [2]: > 219

C[C@H]1CN(CCCOC(=O)[C@H]2Cc3ccc(O)cc3CN2)CC[C@@]1(C)c1cccc(O)c1
Ratio Ki [3]: 0.54
Ki [4]: 174 nM
Ki [5]: 93 nM

CC(C)CNCc1ccc(-c2ccccc2S(=O)(=O)N2CCCC2)cc1
inhibition [6]: 82%

N=C(N)NCCC[C@@H]1NC(=O)[C@H](CCCNC(=N)N)NC(=O)[C@H](NC(=O)[C@H](Cc2ccccc2)NC(=O)CNC(=O)CNC(=O)[C@H](Cc2ccc(O)cc2)NCc2ccccc2)CC(=O)NC[C@@H](C(=O)N[C@@H](CCCNC(=N)N)C(=O)N2CCC[C@H]2C(=O)N[C@@H](CCCCN)C(N)=O)NC1=O
Ki [7]: 30 nM

CC(=O)N1Cc2cc(O)ccc2C[C@@H]1C(=O)N[C@H](CN1CC[C@@](C)(c2cccc(O)c2)[C@@H](C)C1)C(C)C
Ratio Ki [1]: 5
Ki [8]: 164 nM
Ratio Ki [2]: > 34

O=C1N[C@@H](Cc2ccccc2)C(=O)N2CCC[C@@H]2C(=O)N[C@@H](Cc2ccccc2)C(=O)N[C@H]1Cc1c[nH]c2ccccc12 (HELM PEPTIDE1{F.W.F.[dP]}$PEPTIDE1,PEPTIDE1,1:R1-4:R2$$$V2.0)
IC50 [9]: 2600 nM
ED50 [10]: 1300 nM

CC(=O)N[C@@H](Cc1ccccc1)C(=O)N[C@@H](Cc1ccccc1)C(=O)N[C@@H](Cc1ccccc1)C(=O)N[C@@H](CCCNC(=N)N)C(=O)N[C@@H](CC(C)C)C(=O)N[C@@H](CCCNC(=N)N)C(=O)N[C@@H](CCCNC(=N)N)C(=O)N[C@H](C)C(=O)N[C@@H](CCCNC(=N)N)C(=O)N1CCC[C@H]1C(=O)N[C@@H](CCCCN)C(N)=O (HELM PEPTIDE1{[ac].F.F.F.R.L.R.R.[dA].R.P.K.[am]}$$$$V2.0)
Ki [7]: 10 nM
Ratio Ki [11]: 174
Ratio Ki [12]: 583

CCOC(=O)C(CN1CC[C@@](C)(c2cccc(O)c2)[C@@H](C)C1)OC(=O)[C@H]1Cc2ccc(O)cc2CN1 (some centres not stated)
Ki [4]: 2.39 nM

CCCCC(=N)NCCc1ccc2c(c1)C1C[C@@]3(O)[C@H]4Cc5ccc(O)c6c5[C@@]3(CCN4CC3CC3)[C@@H](O6)C1N2 (some centres not stated)
Ki [13]: 5.33 nM
Ki [14]: 0.17 nM
Ki [15]: 3.31 nM

C[C@H]1CN(CCOC(=O)[C@H]2Cc3ccc(O)cc3CN2)CC[C@@]1(C)c1cccc(O)c1
Ratio Ki [3]: 0.72
Ki [4]: 135 nM
Ki [5]: 97.7 nM

Cc1cc(C)cc([C@@H]2CCCN2Cc2ccc(Oc3ccc(C(N)=O)cc3F)cc2)c1 [ATICAPRANT]
ED50 [16]: 0.4 mg/kg

CC(C)[C@@H](CN1CC[C@@](C)(c2cccc(O)c2)[C@@H](C)C1)NC(=O)[C@H]1Cc2ccc(O)cc2CN1 [JDTIC]
Ki [17]: > 300 nM
Ki [18]: 2.16 nM

CC(C)[C@@H](CN1CC[C@@](C)(c2cccc(O)c2)[C@@H](C)C1)NC(=O)[C@H]1Cc2ccc(O)cc2CN1C
Ratio Ki [1]: 700
Ratio Ki [2]: 11600
